Data as given in paper PMC3006138, “Fexinidazole – A New Oral Nitroimidazole Drug Candidate Entering Clinical Development for the Treatment of Sleeping Sickness” (PLoS Neglected Tropical Diseases, 2010).

Columns and labels:
CYP3A4 = CYP3A4 (Homo sapiens, UniProt P08684); assay: In vitro CYP-450 metabolism; format: in vitro ADME; details: 1.0 µM, up to 60 min
Protocol: (§1) Duplicate samples of human recombinant CYP enzyme isotypes CYP1A2, CYP2B6, CYP2C8, CYP2C9, CYP2C19, CYP2D6, CYP3A4, CYP3A5 (10–30 pmol/mL) with NADPH as cofactor were incubated with fexinidazole, fexinidazole sulfoxide, or fexinidazole sulfone at a concentration of 1.0 µM for up to 60 min (pH 7.4, 37°C). Detection of the compounds was via HPLC-MS.

CYP2C8 = CYP2C8 (Homo sapiens, UniProt P10632); assay: In vitro CYP-450 metabolism; format: in vitro ADME; details: 1.0 µM, up to 60 min
Protocol: as §1

CYP2C9 = CYP2C9 (Homo sapiens, UniProt P11712); assay: In vitro CYP-450 metabolism; format: in vitro ADME; details: 1.0 µM, up to 60 min
Protocol: as §1

CYP2C19 = CYP2C19 (Homo sapiens, UniProt P33261); assay: In vitro CYP-450 metabolism; format: in vitro ADME; details: 1.0 µM, up to 60 min
Protocol: as §1

CYP2B6 = CYP2B6 (Homo sapiens, UniProt P20813); assay: In vitro CYP-450 metabolism; format: in vitro ADME; details: 1.0 µM, up to 60 min
Protocol: as §1

CYP1A2 = CYP1A2 (Homo sapiens, UniProt P05177); assay: In vitro CYP-450 metabolism; format: in vitro ADME; details: 1.0 µM, up to 60 min
Protocol: as §1

CYP3A5 = CYP3A5 (Homo sapiens, UniProt P20815); assay: In vitro CYP-450 metabolism; format: in vitro ADME; details: 1.0 µM, up to 60 min
Protocol: as §1

[1] = 28-day repeated-dose oral toxicity; format: in vivo
Protocol: In the rat repeated-dose toxicokinetic study, fexinidazole was administered orally by gavage once a day for 28 consecutive days to ten or fifteen Crl:CD (SD)IGS BR rats/sex/group at doses of 50, 200, or 800 mg/kg/day. A control group received the vehicle alone (5% Tween 80/0.5% methocel). Ten animals/sex/group were sacrificed at the end of the treatment period on day 29 or 30 of study. The remaining 5 animals/sex/group in the control and high-dose groups were sacrificed on day 43 at the end of a 2-weeks observation period. Systemic exposure to fexinidazole and its sulfoxide and sulfone metabolites was evaluated in three additional animals/sex/group. Samples were taken at predose, and 30 min, 1, 2, 4, 8 and 24 h after dosing on days 1, 14, and 28, and in addition at 48 and 72 h after treatment on day 28.
Study Report for NervianoMS Study 0504-2007
Fexinidaxole, a 5-nitroimidazole derivative biologically active against Trypanosoma parasites (T.b. rhodesiense and T.b. brucei ), was administered orally by gavage once daily for 28 consecutive days to ten or fifteen Crl:CD (SD)IGS BR rats/sex/group at doses of 50, 200 and 800 mg/kg/day in a volume of 10 mL/kg.
A control group received the vehicle alone (5% Tween 80 in 0.5% Methyl cellulose 400 cP […]
Ten animals/sex/group were sacrificed at the end of the treatment period on Day 29 or 30 of study. The remaining 5 animals/sex in the control and high-dose groups were sacrificed on Day 43 at the end of a two-week observation period.
Mortality, behavior and general condition were observed daily. Body weight was recorded pretest, and on Days 1, 8, 14, 21, 28, 35 and 42. Food consumption was recorded from Days […]
pre-test, and on Days 28 and 42. Hematological and clinical chemistry examinations and urine analysis were performed on Days 29 and 43.
Post-mortem examinations performed at the end of the treatment period (Day 29 or 30) or the recovery period (Day 43) included necropsy, organ weights and histological […]
Systemic exposure information was obtained from three additional animals/sex/group on Days 1 and 14 at different time-points up to 24 hours after treatment and on Day 28 at different time-points up to 72 hours after treatment.
No meaningful clinical signs or changes in ophthalmoscopic examinations were seen. […]
animals at 200 and 800 mg/kg for the entire treatment period. When treatment was […]
weight gain in comparison with controls.
Nerviano Medical Sciences […]
Humidity 55% +/- 15; monitored
Air Approximately twenty air changes per hour; monitored
Lighting Approximate 12-hour light, 12-hour dark cycle. The lighting cycle could be interrupted for performance of protocol-defined activities.
Water Municipal main, water available ad libitum
Diet 4RF21 GLP pellets ad libitum, supplied by Mucedola
Actual conditions were continuously monitored and recorded, and records were retained.
Release of each lot of feed by the manufacturers was based on analysis of composite samples of each lot, which met specifications set by the manufacturers. Water was periodically analyzed for chemical and microbial impurities. No contaminants were identified in the food or water which were expected to interfere with the results or conclusions of this study.
All the above environmental conditions, as well as all the procedures adopted throughout the study for housing and handling the animals, were in strict compliance with EEC and Italian Guidelines for Laboratory Animal Welfare.
6.2.2. Allocation/Randomization
The animals were selected and distributed into experimental groups using random number tables (Fisher and Yates). The randomization was performed during the pretest period on February 1, 2008 for all animals.
One male animal (No. 2846) assigned to satellite study group for toxicokinetic purposes, found dead on Day 2 of study, was replaced with another one taken from the same arrival batch of animals, in order to maintain the number of three animals/sex/group for subsequent […]
blood samplings. […]

[2] = Respiratory safety (plethysmography); details: single oral dose
Protocol: Respiratory parameters were assessed in the rat [42]. Groups of eight male rats (Crl:CD(SD)BR), aged about 8 weeks on the day of dosing, were administered doses of 100, 300, or 1000 mg/kg of fexinidazole by oral gavage. A predetermined standard set of respiratory parameters was acquired continuously from individual animals housed in plethysmographic chambers. […] After treatment, values were extracted every 30 min up to 4 h. Body weights were recorded on the day of treatment for calculation of dose volumes and for calculation of tidal and minute volumes per kg of body weight.
On the day of dosing, animals were placed in individual plethysmographic chambers. After
an acclimation period of at least 1 hour, and once respiratory parameters had stabilized,
recording of respiratory signals was started and basal data were recorded for at least 30
minutes. Animals were taken from the chambers, orally dosed and placed again in the
chambers for at least 4 hours. […]
the time point was not extracted. Basal values were calculated as the mean of values […]
were extracted every 30 minutes up to 4 hours. The following parameters were calculated […]
− Minute volume (MV, mL/kg/min calculated as TV*f)
− Enhanced Pause (Penh, calculated as ((ET/RT)-1)*(PEF/PIF))
Body weight (grams) was recorded on the day of treatment for calculation of dose volumes […]

Sequence of CYP2C9 (P11712 whole entry): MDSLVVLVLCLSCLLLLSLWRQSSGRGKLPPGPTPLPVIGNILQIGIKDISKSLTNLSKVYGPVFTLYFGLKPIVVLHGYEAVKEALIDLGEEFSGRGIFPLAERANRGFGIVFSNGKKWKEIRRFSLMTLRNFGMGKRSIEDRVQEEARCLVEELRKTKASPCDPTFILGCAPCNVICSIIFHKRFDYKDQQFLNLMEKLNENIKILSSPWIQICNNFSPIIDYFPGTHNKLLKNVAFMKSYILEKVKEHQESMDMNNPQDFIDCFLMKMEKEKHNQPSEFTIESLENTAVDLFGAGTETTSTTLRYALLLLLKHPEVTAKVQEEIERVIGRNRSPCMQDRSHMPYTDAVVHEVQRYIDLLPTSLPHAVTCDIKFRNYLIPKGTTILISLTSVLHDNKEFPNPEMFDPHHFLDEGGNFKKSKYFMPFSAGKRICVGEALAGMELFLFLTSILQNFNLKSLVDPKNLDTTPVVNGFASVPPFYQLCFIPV
Sequence of CYP2C19 (P33261 whole entry): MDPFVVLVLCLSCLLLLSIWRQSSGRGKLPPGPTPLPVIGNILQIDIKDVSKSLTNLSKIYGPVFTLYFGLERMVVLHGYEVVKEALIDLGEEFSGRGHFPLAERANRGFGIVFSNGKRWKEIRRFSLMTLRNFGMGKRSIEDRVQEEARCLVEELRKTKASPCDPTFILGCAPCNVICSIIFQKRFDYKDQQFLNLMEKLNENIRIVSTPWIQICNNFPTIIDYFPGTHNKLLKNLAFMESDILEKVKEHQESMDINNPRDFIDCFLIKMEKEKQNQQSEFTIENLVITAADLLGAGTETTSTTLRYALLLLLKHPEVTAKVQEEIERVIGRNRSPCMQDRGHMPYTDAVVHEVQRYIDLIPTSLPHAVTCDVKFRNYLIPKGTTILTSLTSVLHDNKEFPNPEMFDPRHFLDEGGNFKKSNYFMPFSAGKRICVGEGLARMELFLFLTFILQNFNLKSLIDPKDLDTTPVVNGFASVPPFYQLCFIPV
Sequence of CYP1A2 (P05177 whole entry): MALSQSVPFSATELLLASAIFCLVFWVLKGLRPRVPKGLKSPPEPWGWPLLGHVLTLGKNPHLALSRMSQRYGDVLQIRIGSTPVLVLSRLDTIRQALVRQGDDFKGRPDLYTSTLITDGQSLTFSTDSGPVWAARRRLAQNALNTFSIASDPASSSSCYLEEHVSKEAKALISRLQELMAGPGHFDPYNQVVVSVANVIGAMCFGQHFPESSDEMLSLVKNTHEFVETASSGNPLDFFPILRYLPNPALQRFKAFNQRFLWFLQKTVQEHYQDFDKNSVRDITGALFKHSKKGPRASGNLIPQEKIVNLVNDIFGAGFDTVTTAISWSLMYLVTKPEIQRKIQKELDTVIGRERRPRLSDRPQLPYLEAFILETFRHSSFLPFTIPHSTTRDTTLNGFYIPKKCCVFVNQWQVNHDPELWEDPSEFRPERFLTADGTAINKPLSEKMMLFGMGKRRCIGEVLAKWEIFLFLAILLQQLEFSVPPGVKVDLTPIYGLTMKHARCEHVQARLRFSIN
Sequence of CYP2B6 (P20813 whole entry): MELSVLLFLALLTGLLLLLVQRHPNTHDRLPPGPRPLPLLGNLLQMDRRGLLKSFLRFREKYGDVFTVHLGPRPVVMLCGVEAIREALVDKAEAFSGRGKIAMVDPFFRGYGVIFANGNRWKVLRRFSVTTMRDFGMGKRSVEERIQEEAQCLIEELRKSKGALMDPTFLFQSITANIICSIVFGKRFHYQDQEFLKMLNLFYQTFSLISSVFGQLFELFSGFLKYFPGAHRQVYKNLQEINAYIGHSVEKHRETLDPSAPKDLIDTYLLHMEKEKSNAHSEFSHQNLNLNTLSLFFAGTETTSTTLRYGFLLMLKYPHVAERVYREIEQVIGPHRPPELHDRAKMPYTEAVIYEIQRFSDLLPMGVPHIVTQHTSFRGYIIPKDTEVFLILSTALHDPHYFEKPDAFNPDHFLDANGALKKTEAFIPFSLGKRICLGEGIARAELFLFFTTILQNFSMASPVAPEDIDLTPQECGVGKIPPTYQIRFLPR
Sequence of CYP3A5 (P20815 whole entry): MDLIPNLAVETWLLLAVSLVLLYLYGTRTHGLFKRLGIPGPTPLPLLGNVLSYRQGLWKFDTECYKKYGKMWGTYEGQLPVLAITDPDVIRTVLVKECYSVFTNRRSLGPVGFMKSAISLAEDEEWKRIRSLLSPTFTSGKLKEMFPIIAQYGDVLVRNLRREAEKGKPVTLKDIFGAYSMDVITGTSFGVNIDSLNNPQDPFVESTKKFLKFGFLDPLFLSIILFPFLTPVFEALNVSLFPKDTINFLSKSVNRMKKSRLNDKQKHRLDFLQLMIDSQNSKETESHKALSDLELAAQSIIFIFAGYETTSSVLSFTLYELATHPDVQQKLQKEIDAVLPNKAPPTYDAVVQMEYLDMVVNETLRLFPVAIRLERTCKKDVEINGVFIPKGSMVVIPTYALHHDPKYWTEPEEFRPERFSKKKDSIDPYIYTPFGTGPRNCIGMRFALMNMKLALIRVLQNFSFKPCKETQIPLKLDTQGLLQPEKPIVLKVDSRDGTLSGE
Sequence of CYP3A4 (P08684 whole entry): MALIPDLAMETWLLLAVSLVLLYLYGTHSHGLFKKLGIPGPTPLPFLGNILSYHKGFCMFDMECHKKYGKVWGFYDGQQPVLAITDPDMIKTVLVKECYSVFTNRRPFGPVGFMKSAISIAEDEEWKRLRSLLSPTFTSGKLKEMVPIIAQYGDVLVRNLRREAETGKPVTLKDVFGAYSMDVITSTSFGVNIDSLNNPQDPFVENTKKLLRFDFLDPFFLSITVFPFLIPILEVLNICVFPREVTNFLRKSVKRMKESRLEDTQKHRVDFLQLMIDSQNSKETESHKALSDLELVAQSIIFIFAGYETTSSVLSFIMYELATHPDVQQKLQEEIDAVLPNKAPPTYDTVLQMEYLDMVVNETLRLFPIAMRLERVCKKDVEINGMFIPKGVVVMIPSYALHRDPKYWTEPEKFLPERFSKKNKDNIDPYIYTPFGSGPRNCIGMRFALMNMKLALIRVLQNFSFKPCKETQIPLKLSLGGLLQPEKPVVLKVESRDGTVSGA
Sequence of CYP2C8 (P10632 whole entry): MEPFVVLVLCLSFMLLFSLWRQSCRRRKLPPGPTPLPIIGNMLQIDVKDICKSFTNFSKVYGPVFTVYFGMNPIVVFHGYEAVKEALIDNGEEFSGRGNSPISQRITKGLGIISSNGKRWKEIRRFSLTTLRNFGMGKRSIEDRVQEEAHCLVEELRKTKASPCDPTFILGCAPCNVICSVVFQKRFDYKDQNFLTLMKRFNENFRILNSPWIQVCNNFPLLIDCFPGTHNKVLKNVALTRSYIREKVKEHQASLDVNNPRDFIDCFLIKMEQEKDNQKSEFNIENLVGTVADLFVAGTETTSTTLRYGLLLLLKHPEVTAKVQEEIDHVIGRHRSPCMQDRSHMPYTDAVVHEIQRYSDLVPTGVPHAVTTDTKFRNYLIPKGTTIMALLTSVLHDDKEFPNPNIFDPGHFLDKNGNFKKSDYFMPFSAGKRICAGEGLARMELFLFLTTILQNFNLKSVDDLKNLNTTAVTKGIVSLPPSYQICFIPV

Structure (SMILES): CSc1ccc(OCc2ncc([N+](=O)[O-])n2C)cc1 [Fexinidazole, 1-methyl-2-((p-(methylthio)phenoxy)methyl)-5-nitroimidazole]
- metabolism by the enzyme (CYP3A4): extensively metabolised
- metabolism by the enzyme (CYP2C8): inactive
- metabolism by the enzyme (CYP2C9): inactive
- metabolism by the enzyme (CYP2C19): extensively metabolised
- metabolism by the enzyme (CYP2B6): extensively metabolised
- metabolism by the enzyme (CYP1A2): extensively metabolised
- metabolism by the enzyme (CYP3A5): extensively metabolised
- mortality ([1]; all groups): No compound-related mortality occurred
- NOAEL at 28 days ([1]; both sexes, Crl:CD (SD)IGS BR, rat, in vivo, po): 200 mg/kg/day
- decrease in hemoglobin ([1]; rat, in vivo): 8%
- decrease in neutrophils ([1]; rat, in vivo): about 46%
- decrease in triglycerides ([1]; rat, in vivo): 50%
- increase in globulins ([1]; rat, in vivo): +13%
- increase in total cholesterol ([1]; rat, in vivo): +51%
- liver enzymes ([1]; rat, in vivo): no increase in liver enzymes including AST and ALT
- liver histopathology ([1]; rat, in vivo): Minimal to slight hypertrophy of the centrilobular hepatocytes
- NOEL on respiratory parameters [2]: 1000 mg/kg
